This passage reports MIC results from patent US4285941A, “Cephalosporin compounds and antibacterial drugs containing the same” (Eisai Co., Ltd., priority 1979, dated 1981).

Common to all, as to assay: Minimal inhibitory concentration (MIC), standard agar dilution method
Common to all, as to assay type: cell-based
For orientation: In agar dilution the substance is mixed into plates at graded concentrations.

For assay [1], the system named is Klebsiella pneumoniae EK-6. To be noted: EK6, Mueller Hinton agar, 37° C., 18 hours, Examples 1, 2, 4, 5, 6, 8 and 22 as sodium salts, others as free carboxylic acids. The method, then: (§1) The compounds obtained in these examples were tested for their antibacterial activities in vitro. Minimal inhibitory concentration (MIC) was determined by the standard agar dilution method of the Japan Society of Chemotherapy. Compounds were dissolved in appropriate solvents (sterilized water for sodium salts and acetone-water [1:1] for free acids) and serial two-fold dilutions were made. Sodium salt of Cefazolin was chosen as the control compound. One-ml aliquots of each dilution were mixed with 9 ml of Mueller Hinton agar in petri-dishes to make agar plates containing the compound at serially diluted concentrations. After agar hardened, plates were put in an incubator at 37° C. for 1.5-2 hours with the lids slightly open to evaporate acetone off the plates. Test organisms were grown for 18 hours at 37° C. in Trypticase Soy broth and diluted in saline to approximately 10^6 colony forming units per ml. A loopful of each cell suspension was applied on the agar plate mentioned above and the plates were incubated for 18 hours at 37° C. before MIC was determined. MIC values of the compounds of Examples 1, 2, 4, 5, 6, 8 and 22 were determined as their sodium salts and those of other compounds as free carboxylic acids.

The subject of a further assay is Proteus morganii EP-14. To be noted: Morganella morganii, EP14; Mueller Hinton agar, 37° C., 18 hours; Examples 1, 2, 4, 5, 6, 8 and 22 as sodium salts, others as free carboxylic acids. As for the experimental part: as §1
The next assay has as its system Escherichia coli NIHJ. To be noted: Mueller Hinton agar, 37° C., 18 hours, Examples 1, 2, 4, 5, 6, 8 and 22 as sodium salts, others as free carboxylic acids. The method, then: as §1
For assay [2], the system named is Staphylococcus aureus 209-P. The note with it: Mueller Hinton agar, 37° C., 18 hours, Examples 1, 2, 4, 5, 6, 8 and 22 as sodium salts, others as free carboxylic acids. The method, then:
as §1

Assay [3] relates to Pseudomonas aeruginosa EP-172. The note with it: EP172, Mueller Hinton agar, 37° C., 18 hours, Examples 1, 2, 4, 5, 6, 8 and 22 as sodium salts, others as free carboxylic acids. As for the experimental part: as §1
The test system of assay [4] is Serratia marcescens ES-75. The note with it: ES75, Mueller Hinton agar, 37° C., 18 hours, Examples 1, 2, 4, 5, 6, 8 and 22 as sodium salts, others as free carboxylic acids. The method, then:
as §1

Consider `Cc1nnc(SCC2=C(C(=O)O)N3C(=O)[C@@H](NC(=O)[C@H](NC(=O)c4coc5cc(O)c(O)cc5c4=O)c4ccccc4)[C@H]3SC2)s1` [Example 2, 7β-[D-2-(6,7-Dihydroxychromone-3-carboxamido)-2-phenyl-acetamido]-3-[(5-methyl-1,3,4-thiadiazol-2-yl)thiomethyl]-3-cephem-4-carboxylic acid], for which the MIC (commonly the lowest concentration that inhibits growth of the organism) is not above 0.1 µg/mL in assay [1]; 0.8 µg/mL in the assay on Proteus morganii EP-14; 0.8 µg/mL with Escherichia coli NIHJ; 1.56 µg/mL in assay [2]; 3.13 µg/mL in assay [3]; not above 0.1 µg/mL in assay [4].
Turning to `Cn1nnnc1SCC1=C(C(=O)O)N2C(=O)[C@@H](NC(=O)[C@H](NC(=O)c3coc4cc(O)c(O)cc4c3=O)c3ccc(O)cc3)[C@H]2SC1` [Example 3, 7β-[D-2-(6,7-Dihydroxychromone-3-carboxamido)-2-(4-hydroxyphenyl)acetamido]-3-[(1-methyltetrazol-5-yl)thiomethyl]-3-cephem-4-carboxylic acid], the MIC was not above 0.1 µg/mL in assay [1]; 0.4 µg/mL in the assay on Proteus morganii EP-14; 0.2 µg/mL in the assay on Escherichia coli NIHJ; 0.8 µg/mL in assay [2]; 0.4 µg/mL in assay [3]; not above 0.1 µg/mL in assay [4].
Regarding `CC(=O)Oc1cc2occ(C(=O)N[C@@H](C(=O)N[C@@H]3C(=O)N4C(C(=O)O)=C(CSc5nnc(C)s5)CS[C@H]34)c3ccccc3)c(=O)c2cc1OC(C)=O` [Example 6, 7β-[D-2-(6,7-Diacetoxychromone-3-carboxamido)-2-phenylacetamido]-3-[(5-methyl-1,3-4-thiadiazol-2-yl)thiomethyl]-3-cephem-4-carboxylic acid], the minimal inhibitory concentration (MIC) was not above 0.1 µg/mL in assay [1]; 0.8 µg/mL with Proteus morganii EP-14; 0.8 µg/mL in the assay on Escherichia coli NIHJ; 1.56 µg/mL in assay [2]; 3.13 µg/mL in assay [3]; not above 0.1 µg/mL in assay [4].
For `CC(=O)Oc1cc2occ(C(=O)N[C@@H](C(=O)N[C@@H]3C(=O)N4C(C(=O)O)=C(CSc5nnnn5C)CS[C@H]34)c3ccc(O)cc3)c(=O)c2cc1OC(C)=O` [Example 7, 7β-[D-2-(6,7-Diacetoxychromone-3-carboxamido)-2-(4-hydroxyphenyl)acetamido]-3-[(1-methyltetrazol-5-yl)thiomethyl]-3-cephem-4-carboxylic acid], the MIC was not above 0.1 µg/mL in assay [1]; 0.4 µg/mL with Proteus morganii EP-14; not above 0.1 µg/mL in the assay with Escherichia coli NIHJ; 1.56 µg/mL in assay [2]; 0.4 µg/mL in assay [3]; not above 0.1 µg/mL in assay [4].
Regarding `CC(=O)Oc1cc2occ(C(=O)N[C@@H](C(=O)N[C@@H]3C(=O)N4C(C(=O)O)=C(CSc5nnc(C)s5)CS[C@H]34)c3ccc(O)cc3)c(=O)c2cc1OC(C)=O` [Example 8, 7β-[D-2-(6,7-Diacetoxychromone-3-carboxamido)-2-(4-hydroxyphenyl)acetamido]-3-[(5-methyl-1,3,4-thiadiazol-2-yl)thiomethyl]-3-cephem-4-carboxylic acid], the MIC in assay [1] was not above 0.1 µg/mL; in the assay on Proteus morganii EP-14 it was 1.56 µg/mL; in the assay on Escherichia coli NIHJ, 0.8 µg/mL; in assay [2], 3.13 µg/mL; in assay [3], 1.56 µg/mL; in assay [4], not above 0.1 µg/mL.
For `Cn1nnnc1SCC1=C(C(=O)O)N2C(=O)[C@@H](NC(=O)[C@H](NC(=O)c3coc4c(O)c(O)ccc4c3=O)c3ccc(O)cc3)[C@H]2SC1` [Example 9, 7β-[D-2-(7,8-Dihydroxychromone-3-carboxamido)-2-(4-hydroxyphenyl)acetamido]-3-[(1-methyltetrazol-5-yl)thiomethyl]-3-cephem-4-carboxylic acid], the minimum inhibitory concentration (MIC) was not above 0.1 µg/mL in assay [1]; 12.5 µg/mL in the assay with Proteus morganii EP-14; 1.56 µg/mL in the assay on Escherichia coli NIHJ; 0.8 µg/mL in assay [2]; 6.25 µg/mL in assay [3]; 3.13 µg/mL in assay [4].
Take `CC(=O)Oc1ccc2c(=O)c(C(=O)N[C@@H](C(=O)N[C@@H]3C(=O)N4C(C(=O)O)=C(CSc5nnc(C)s5)CS[C@H]34)c3ccccc3)coc2c1OC(C)=O` [Example 10, 7β-[D-2-(7,8-Diacetoxychromone-3-carboxamido)-2-phenyl-acetamido]-3-[(5-methyl-1,3,4-thiadiazol-2-yl)thiomethyl]-3-cephem-4-carboxylic acid]: the minimal inhibitory concentration (MIC) in assay [1] is not above 0.1 µg/mL; in the assay on Proteus morganii EP-14, 1.56 µg/mL; in the assay on Escherichia coli NIHJ, 0.8 µg/mL; in assay [2], 0.8 µg/mL; in assay [3] it was 1.56 µg/mL; in assay [4], 0.2 µg/mL.
Regarding `CC(=O)Oc1ccc2c(=O)c(C(=O)N[C@@H](C(=O)N[C@@H]3C(=O)N4C(C(=O)O)=C(CSc5nnnn5C)CS[C@H]34)c3ccc(O)cc3)coc2c1OC(C)=O` [Example 11, 7β-[D-2-(7,8-Diacetoxychromone-3-carboxamido)-2-(4-hydroxyphenyl)acetamido] -3-[(1-methyltetrazol-5-yl)thiomethyl]-3-cephem-4-carboxylic acid], the MIC is not above 0.1 µg/mL in assay [1]; 25 µg/mL with Proteus morganii EP-14; 0.8 µg/mL in the assay on Escherichia coli NIHJ; 0.8 µg/mL in assay [2]; 6.25 µg/mL in assay [3]; 1.56 µg/mL in assay [4].
Consider `CC(=O)Oc1ccc2c(=O)c(C(=O)N[C@@H](C(=O)N[C@@H]3C(=O)N4C(C(=O)O)=C(CSc5nnc(C)s5)CS[C@H]34)c3ccc(O)cc3)coc2c1OC(C)=O` [Example 12, 7β[D-2-(7,8-Diacetoxychromone-3-carboxamido)-2-(4-hydroxyphenyl)acetamido]-3-[(5-methyl-1,3,4-thiadiazol-2-yl)thiomethyl]-3-cephem-4-carboxylic acid], for which the MIC is not above 0.1 µg/mL in assay [1]; 3.13 µg/mL in the assay on Proteus morganii EP-14; 1.56 µg/mL with Escherichia coli NIHJ; 1.56 µg/mL in assay [2]; 1.56 µg/mL in assay [3]; 0.2 µg/mL in assay [4].
As for `Cn1nnnc1SCC1=C(C(=O)O)N2C(=O)[C@@H](NC(=O)[C@H](NC(=O)c3coc4cc(O)ccc4c3=O)c3ccc(O)cc3)[C@H]2SC1` [Example 13, 7β-[D-2-(7-Hydroxychromone-3-carboxamido)-2-(4-hydroxyphenyl)acetamido]-3-[(1-methyltetrazol-5-yl)thiomethyl]-3-cephem-4-carboxylic acid], the minimal inhibitory concentration (MIC) in assay [1] was 12.5 µg/mL; with Proteus morganii EP-14 it was 25 µg/mL; with Escherichia coli NIHJ it was 6.25 µg/mL; in assay [2] it was 0.4 µg/mL; in assay [3] it was 50 µg/mL; in assay [4], 12.5 µg/mL.
With `Cn1nnnc1SCC1=C(C(=O)O)N2C(=O)[C@@H](NC(=O)[C@H](NC(=O)c3coc4ccccc4c3=O)c3ccc(O)cc3)[C@H]2SC1` [Example 15, 7β-[D-2-(Chromone-3-carboxamido)-2-(4-hydroxyphenyl)acetamido]-3-[(1-methyltetrazol-5-yl)thiomethyl]-3-cephem-4-carboxylic acid], the MIC in assay [1] came out at 12.5 µg/mL; with Proteus morganii EP-14, 25 µg/mL; in the assay with Escherichia coli NIHJ it was 6.25 µg/mL; in assay [2], 0.4 µg/mL; in assay [3] it was 100 µg/mL; in assay [4], 25 µg/mL.
In the case of `Cn1nnnc1SCC1=C(C(=O)O)N2C(=O)[C@@H](NC(=O)[C@H](NC(=O)c3coc4ccccc4c3=O)c3ccccc3)[C@H]2SC1` [Example 16, 7β-[D-2-(Chromone-3-carboxamido)-2-phenylacetamido]-3-[(1-methyltetrazol-5-yl)thiomethyl]-3-cephem-4-carboxylic acid], the MIC is 6.25 µg/mL in assay [1]; 6.25 µg/mL in the assay with Proteus morganii EP-14; 6.25 µg/mL in the assay on Escherichia coli NIHJ; not above 0.1 µg/mL in assay [2]; 25 µg/mL in assay [3]; 3.13 µg/mL in assay [4].
Turning to `O=C(O)C1=C(CSc2nncs2)CS[C@@H]2[C@H](NC(=O)[C@H](NC(=O)c3coc4cc(O)c(O)cc4c3=O)c3ccc(O)cc3)C(=O)N12` [Example 19, 7β-[D-2-(6,7-Dihydroxychromone-3-carboxamido)-2-(4-hydroxyphenyl)acetamido]-3-[(1,3,4-thiadiazol-2-yl)thiomethyl]-3-cephem-4-carboxylic acid], the MIC in assay [1] was not above 0.1 µg/mL; with Proteus morganii EP-14, 12.5 µg/mL; with Escherichia coli NIHJ, 0.4 µg/mL; in assay [2], 0.8 µg/mL; in assay [3], 0.4 µg/mL; in assay [4], 0.2 µg/mL.
In the case of `CCn1nnnc1SCC1=C(C(=O)O)N2C(=O)[C@@H](NC(=O)[C@H](NC(=O)c3coc4cc(O)c(O)cc4c3=O)c3ccc(O)cc3)[C@H]2SC1` [Example 20, 7β-[D-2-(6,7-Dihydroxychromone-3-carboxamido)-2-(4-hydroxyphenyl)acetamido]-3-[(1-ethyltetrazol-5-yl)thiomethyl]-3-cephem-4-carboxylic acid], the MIC is not above 0.1 µg/mL in assay [1]; 3.13 µg/mL in the assay on Proteus morganii EP-14; 0.2 µg/mL with Escherichia coli NIHJ; 0.8 µg/mL in assay [2]; 0.2 µg/mL in assay [3]; not above 0.1 µg/mL in assay [4].
